According to ChEMBL document CHEMBL1155378, “Design, synthesis, and evaluation of indole compounds as novel inhibitors targeting Gp41” (Bioorg Med Chem Lett, 2010):

Columns and labels:
[1] = Cytotoxicity against human HL2/3 cells after 24 hrs by XTT proliferation assay; type: cell-based; conditions: hl2/3, 24 h
[2] = Inhibition of HIV1 envelope glycoprotein gp41; set-up: species or system Human immunodeficiency virus 1
[3] = system: Human immunodeficiency virus 1; assay: Inhibition of HIV1 envelope glycoprotein gp41 by cell-cell fusion assay
[4] = Inhibition of HIV1 envelope glycoprotein 41-mediated membrane fusion between virus-transfected human HL2/3 cells and human TZM-bl cells after 6 hrs by fluorescence-based cell-cell fusion assay; set-up: species or system Human immunodeficiency virus 1
[5] = Displacement of C18-Aib-lucifer yellow from HIV1 envelope glycoprotein gp41 Fe(env2.0)3 by fluorescence assay; set-up: species or system Human immunodeficiency virus 1

## O=C(O)c1cccc(Cc2ccc3ccn(Cn4ccc5ccc(Cc6cccc(C(=O)O)c6)cc54)c3c2)c1
[1]
  CC50: 80 µM

## COc1ccc(S(=O)(=O)O)cc1/N=N/c1c(S(=O)(=O)O)cc2cc(Nc3nc(Nc4ccccc4)nc(Nc4cc(C)c(/N=N/c5cc(S(=O)(=O)O)cc6cc(S(=O)(=O)O)cc(O)c56)cc4OC)n3)ccc2c1O
[2]
  IC50: 620 nM
[3]
  INH: 4.2 µM

## Cc1ccc(C2=NNC3C=CC4C(C(F)(F)F)=CC(C(F)(F)F)=NC4N23)cc1 (stereo not given)
[4]
  IC50: 18 µM

## O=C(O)c1cccc(Cc2ccc(F)cc2)c1
[5]
  Ki: 548 µM
[4]
  IC50: 560 µM

## COc1ccc(Cn2ccc3ccc(Cc4cccc(C(=O)O)c4)cc32)cc1
[1]
  CC50: 100 µM

## O=C(O)c1cccc(Cc2ccc3ccn(-c4cccc(C(=O)O)c4)c3c2)c1
[5]
  Ki: 107 µM
[1]
  CC50: > 400 µM

## COc1cccc(-n2ccc3ccc(Cc4cccc(C(=O)O)c4)cc32)c1
[1]
  CC50: > 100 µM
